According to patent publication US12704493B2 (priority 2020, dated 2026):

Legend:
[1] = test system: electroactive microorganisms
[2] = test system: electroactive microorganisms of the biosensor anode

| SMILES | change of open circuit voltage with each spike [1] | decrease in the estimated open circuit voltage [2] [%] |
| --- | --- | --- |
| O=S(=O)([O-])[O-].[Cu+2] [Cu, CuSO4] | reduced | – |
| C=O [formaldehyde] | – | ~90 |
